Reference: paper PMC5613053 (Investigational New Drugs, 2017)
Like-named read-outs stand apart in the source and are kept apart here.

Experiments:
ALK = biological target: T1, ALK (Homo sapiens, UniProt Q9UM73); assay: Tyrosine kinase panel (off-chip MSA); assay type: biochemical; conditions: 1 nM; single experiment
T1 construct: purchased Carna Biosciences, Inc
Procedure: (§1) Inhibitory assay for the panel of tyrosine kinases was conducted using off-chip MSA. Percentage inhibitions were determined in a single experiment

MER = biological target: T2, MER (Homo sapiens, UniProt Q12866); assay: Tyrosine kinase panel (off-chip MSA); assay type: biochemical; conditions: 5 nM; single experiment
T2 construct: purchased Carna Biosciences, Inc
Procedure: as §1

RET = biological target: T3, RET (Homo sapiens, UniProt P07949); assay: Tyrosine kinase panel (off-chip MSA); assay type: biochemical; conditions: 5 nM; single experiment
T3 construct: purchased Carna Biosciences, Inc
Procedure: as §1

ROS = biological target: T4, ROS (Homo sapiens, UniProt P08922); assay: Tyrosine kinase panel (off-chip MSA); assay type: biochemical; conditions: 5 nM; single experiment
T4 construct: purchased Carna Biosciences, Inc
Procedure: as §1

TRKA = biological target: T5, TRKA (Homo sapiens, UniProt P04629); assay: Tyrosine kinase panel (off-chip MSA); assay type: biochemical; conditions: 5 nM; single experiment
T5 construct: purchased Carna Biosciences, Inc
Procedure: as §1

[1] = Pharmacokinetics in MV4–11 xenografted nude mice (plasma and tumor); assay type: in vivo; conditions: for AUC(0-t) / Cmax / Tmax: nude, mouse; for AUC(0-t): read-out: AUCt, plasma concentration; for Tmax: read-out: Time of maximal plasma concentration
Procedure: Tumor samples were also collected from each mouse and tumor weight was measured.

phospho-STAT5 = assay: Immunoblot for phosphorylated STAT5 / STAT5 in MV4-11 xenograft tumors; assay type: in vivo, mice; conditions: for Phospho-STAT5, % of baseline levels: 3 mg/kg
From the text: Detailed protocols can be found in the online resource.
After 1 month, mice were divided into groups, with each group having approximately the same mean tumor volume.
MV4-11 xenograft tumor protein samples were electrophoresed on 7.5% gels, transferred to PVDF membranes, and probed for phosphorylated-STAT and total STAT5 as described earlier with one alteration. Following detection of phosphorylated STAT5, the membrane was stripped using Restore™ Western Blot Stripping Buffer (Thermo Fisher Scientific) and then re-probed for total STAT5. Phosphorylation levels were normalized to total STAT5 levels in each group (3 mice/group) relative to the mean value of the control group (4 mice/group). Data are reported as mean ± SEM.

[2] = system: Ba/F3 cells expressing FLT3-ITD; assay: Ba/F3 FLT3-ITD subcutaneous xenograft; assay type: in vivo, mice; conditions: up to 7 days
Procedure: (§2) Once tumor growth had been confirmed, mice xenografted with MV4–11 cells were monitored for 28 days; mice xenografted with Ba/F3 cells expressing FLT3 mutations were monitored for 7 days. Tumor diameter was measured using a caliper, and tumor volume was determined by calculating the volume of an ellipsoid using the formula: length × width^2 × 0.5. Body weight was measured using a standard balance. Data are expressed as mean ± SEM from n = 6 mice/group (MV4–11) and n = 5 mice/group (Ba/F3).
(§3) After tumor establishment, mice were divided into groups such that the mean tumor volume was approximately equal in each group.

[3] = system: Ba/F3 cells expressing FLT3-D835Y; assay: Ba/F3 FLT3-D835Y subcutaneous xenograft; assay type: in vivo, mice; conditions: up to 7 days
Procedure: as §2, §3

MV4–11-luc cells = assay: Intra-bone marrow transplantation (IBMT) model; assay type: in vivo, mice
Procedure: In the intra-bone marrow transplantation (IBMT) model, MV4–11-luc cells (1 × 10^6 cells/mouse) were injected into the bone marrow of the left tibia of female NOD-SCID mice (day 0) following the protocol detailed by Lee et al.. Tumor growth was monitored by bioluminescent imaging of the whole body with an IVIS Spectrum (PerkinElmer, Waltham, MA). […] Tumor growth was monitored once a week during the dosing period and then every other week until day 100. Survival was also monitored daily until day 168.

T4 sequence (P08922 28-2347): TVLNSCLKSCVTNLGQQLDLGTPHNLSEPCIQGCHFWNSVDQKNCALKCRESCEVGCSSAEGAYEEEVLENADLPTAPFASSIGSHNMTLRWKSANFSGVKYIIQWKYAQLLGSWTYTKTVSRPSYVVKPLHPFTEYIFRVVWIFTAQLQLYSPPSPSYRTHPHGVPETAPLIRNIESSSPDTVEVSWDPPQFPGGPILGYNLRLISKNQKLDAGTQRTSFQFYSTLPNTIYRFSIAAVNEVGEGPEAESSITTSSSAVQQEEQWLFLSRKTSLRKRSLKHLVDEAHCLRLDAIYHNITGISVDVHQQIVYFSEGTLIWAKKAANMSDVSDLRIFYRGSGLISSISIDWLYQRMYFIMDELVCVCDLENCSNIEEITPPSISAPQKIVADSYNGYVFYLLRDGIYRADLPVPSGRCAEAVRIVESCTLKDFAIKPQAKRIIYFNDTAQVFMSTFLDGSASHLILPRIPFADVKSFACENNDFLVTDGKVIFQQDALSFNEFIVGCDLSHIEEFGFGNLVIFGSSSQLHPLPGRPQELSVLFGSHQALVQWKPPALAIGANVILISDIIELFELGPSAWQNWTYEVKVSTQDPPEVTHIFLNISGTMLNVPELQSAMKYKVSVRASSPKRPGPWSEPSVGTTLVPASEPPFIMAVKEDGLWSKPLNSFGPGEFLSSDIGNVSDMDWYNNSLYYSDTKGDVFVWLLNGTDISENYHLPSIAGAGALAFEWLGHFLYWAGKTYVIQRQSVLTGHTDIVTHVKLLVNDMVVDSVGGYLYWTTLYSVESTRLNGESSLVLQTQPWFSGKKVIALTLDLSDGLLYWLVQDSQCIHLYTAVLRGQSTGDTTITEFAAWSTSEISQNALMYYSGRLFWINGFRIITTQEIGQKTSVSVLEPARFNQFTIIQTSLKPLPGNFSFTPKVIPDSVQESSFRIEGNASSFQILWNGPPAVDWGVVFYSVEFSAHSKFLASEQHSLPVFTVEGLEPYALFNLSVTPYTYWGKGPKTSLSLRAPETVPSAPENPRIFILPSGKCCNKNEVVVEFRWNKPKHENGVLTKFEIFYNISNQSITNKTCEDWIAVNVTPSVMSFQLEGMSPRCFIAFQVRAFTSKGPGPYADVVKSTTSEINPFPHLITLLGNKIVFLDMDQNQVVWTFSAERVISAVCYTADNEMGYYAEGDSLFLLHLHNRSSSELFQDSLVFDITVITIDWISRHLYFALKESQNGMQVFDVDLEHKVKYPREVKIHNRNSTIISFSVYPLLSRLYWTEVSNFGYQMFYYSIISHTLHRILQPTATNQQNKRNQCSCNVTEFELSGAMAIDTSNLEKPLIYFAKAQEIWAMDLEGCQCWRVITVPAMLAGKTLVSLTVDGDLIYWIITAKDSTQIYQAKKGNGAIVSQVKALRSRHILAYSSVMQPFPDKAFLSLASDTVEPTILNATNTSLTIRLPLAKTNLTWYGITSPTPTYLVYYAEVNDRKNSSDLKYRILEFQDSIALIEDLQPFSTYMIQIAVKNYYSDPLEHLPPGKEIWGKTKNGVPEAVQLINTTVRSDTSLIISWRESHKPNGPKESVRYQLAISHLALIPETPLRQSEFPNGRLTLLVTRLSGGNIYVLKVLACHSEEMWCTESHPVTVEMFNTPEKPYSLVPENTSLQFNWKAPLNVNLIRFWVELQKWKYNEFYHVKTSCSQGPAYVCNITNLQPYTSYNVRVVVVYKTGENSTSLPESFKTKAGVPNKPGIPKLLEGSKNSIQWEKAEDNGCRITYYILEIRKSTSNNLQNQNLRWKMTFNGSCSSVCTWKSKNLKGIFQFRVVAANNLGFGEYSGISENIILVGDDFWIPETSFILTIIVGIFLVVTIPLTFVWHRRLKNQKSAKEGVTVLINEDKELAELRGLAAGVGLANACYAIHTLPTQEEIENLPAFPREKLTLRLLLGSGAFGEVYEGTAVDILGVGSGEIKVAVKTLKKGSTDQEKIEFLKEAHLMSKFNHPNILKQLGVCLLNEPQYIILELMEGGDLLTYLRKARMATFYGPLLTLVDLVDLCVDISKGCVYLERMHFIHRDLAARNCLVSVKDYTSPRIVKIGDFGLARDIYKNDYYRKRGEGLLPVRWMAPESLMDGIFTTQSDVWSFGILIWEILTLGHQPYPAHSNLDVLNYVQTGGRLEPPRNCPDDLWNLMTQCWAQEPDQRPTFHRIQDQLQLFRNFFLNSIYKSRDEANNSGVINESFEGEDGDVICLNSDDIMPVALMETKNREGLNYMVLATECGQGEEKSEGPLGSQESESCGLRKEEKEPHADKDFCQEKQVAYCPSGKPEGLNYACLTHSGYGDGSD
T1 sequence (Q9UM73 19-1620): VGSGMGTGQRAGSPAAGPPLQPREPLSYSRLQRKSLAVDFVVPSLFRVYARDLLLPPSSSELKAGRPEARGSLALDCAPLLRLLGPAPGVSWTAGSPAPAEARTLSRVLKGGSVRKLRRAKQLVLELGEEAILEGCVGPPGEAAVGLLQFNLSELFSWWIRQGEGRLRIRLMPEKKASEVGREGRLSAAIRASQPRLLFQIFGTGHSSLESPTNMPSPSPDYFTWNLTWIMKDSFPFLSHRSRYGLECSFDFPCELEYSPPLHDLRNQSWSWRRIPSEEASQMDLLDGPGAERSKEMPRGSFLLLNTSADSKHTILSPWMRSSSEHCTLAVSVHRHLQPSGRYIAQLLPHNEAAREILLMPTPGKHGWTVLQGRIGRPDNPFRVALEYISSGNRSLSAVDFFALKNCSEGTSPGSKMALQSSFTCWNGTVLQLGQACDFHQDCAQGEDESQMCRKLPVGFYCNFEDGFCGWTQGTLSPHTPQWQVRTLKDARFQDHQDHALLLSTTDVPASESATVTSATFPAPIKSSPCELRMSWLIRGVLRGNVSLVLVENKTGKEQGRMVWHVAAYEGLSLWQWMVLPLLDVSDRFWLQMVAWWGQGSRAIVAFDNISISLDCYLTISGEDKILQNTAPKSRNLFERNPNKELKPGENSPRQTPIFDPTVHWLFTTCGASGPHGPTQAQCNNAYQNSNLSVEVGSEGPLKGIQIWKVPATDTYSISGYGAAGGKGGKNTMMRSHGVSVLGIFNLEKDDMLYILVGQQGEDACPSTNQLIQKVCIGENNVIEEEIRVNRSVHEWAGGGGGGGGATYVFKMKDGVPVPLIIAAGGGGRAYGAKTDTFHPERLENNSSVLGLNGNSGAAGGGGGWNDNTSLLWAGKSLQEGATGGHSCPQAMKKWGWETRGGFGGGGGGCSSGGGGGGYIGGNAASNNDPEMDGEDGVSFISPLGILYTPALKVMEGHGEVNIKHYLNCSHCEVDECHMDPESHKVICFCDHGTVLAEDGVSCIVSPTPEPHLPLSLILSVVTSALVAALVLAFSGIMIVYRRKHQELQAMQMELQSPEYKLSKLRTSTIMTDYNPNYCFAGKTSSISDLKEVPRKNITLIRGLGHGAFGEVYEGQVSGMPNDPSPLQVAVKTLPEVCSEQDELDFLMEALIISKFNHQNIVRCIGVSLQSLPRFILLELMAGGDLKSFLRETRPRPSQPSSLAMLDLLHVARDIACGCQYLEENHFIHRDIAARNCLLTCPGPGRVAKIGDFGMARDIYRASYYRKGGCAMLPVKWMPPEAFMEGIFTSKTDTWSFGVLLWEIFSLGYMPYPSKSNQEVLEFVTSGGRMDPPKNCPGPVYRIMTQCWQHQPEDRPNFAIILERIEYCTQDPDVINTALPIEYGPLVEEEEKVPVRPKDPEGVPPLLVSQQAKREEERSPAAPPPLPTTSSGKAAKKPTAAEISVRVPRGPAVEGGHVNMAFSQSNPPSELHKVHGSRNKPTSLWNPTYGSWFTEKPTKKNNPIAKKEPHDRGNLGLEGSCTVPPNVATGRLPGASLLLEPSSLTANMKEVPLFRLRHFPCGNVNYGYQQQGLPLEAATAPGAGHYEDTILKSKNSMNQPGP
T2 sequence (Q12866 21-999): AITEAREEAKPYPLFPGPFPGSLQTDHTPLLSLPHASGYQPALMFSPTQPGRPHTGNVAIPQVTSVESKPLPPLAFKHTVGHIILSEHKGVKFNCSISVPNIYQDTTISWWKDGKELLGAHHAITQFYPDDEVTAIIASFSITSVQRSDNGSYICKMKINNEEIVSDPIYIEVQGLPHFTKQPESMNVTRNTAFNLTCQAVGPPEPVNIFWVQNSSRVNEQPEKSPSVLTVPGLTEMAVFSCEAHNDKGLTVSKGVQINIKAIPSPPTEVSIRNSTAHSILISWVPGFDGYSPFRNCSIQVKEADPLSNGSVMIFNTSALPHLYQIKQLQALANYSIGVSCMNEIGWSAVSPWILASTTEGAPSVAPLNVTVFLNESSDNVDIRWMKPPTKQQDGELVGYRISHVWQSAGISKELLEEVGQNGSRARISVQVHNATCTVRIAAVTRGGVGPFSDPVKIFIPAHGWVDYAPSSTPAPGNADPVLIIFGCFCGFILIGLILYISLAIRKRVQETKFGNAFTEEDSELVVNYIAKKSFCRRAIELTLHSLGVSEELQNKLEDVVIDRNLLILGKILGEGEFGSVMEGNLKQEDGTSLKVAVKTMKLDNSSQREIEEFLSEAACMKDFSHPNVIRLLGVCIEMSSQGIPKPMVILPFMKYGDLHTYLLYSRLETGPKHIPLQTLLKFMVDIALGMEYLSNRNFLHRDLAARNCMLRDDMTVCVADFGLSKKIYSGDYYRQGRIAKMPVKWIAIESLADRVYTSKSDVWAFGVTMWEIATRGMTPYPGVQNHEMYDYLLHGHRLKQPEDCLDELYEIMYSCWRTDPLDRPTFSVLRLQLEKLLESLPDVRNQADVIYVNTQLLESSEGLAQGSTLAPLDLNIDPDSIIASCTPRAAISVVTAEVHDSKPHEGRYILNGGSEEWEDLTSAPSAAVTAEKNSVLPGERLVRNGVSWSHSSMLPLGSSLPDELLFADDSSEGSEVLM

CCc1nc(C(N)=O)c(Nc2ccc(N3CCC(N4CCN(C)CC4)CC3)c(OC)c2)nc1NC1CCOCC1 [gilteritinib]
inhibition at 0.001 µM (ALK): > 50%
inhibition at 0.005 µM (MER): > 50%
inhibition at 0.005 µM (RET): > 50%
inhibition at 0.005 µM (ROS): > 50%
inhibition at 0.005 µM (TRKA): > 50%
AUC(0-t) ([1]; plasma, single oral 1 mg/kg): 25.2 ng·h/mL
Cmax ([1]; plasma, single oral 1 mg/kg, read-out: Cmax, plasma concentration): 6.56 ng/mL
Tmax ([1]; plasma, single oral 1 mg/kg): 2 h
AUC(0-t) ([1]; plasma, single oral 6 mg/kg): 269 ng·h/mL
Cmax ([1]; plasma, single oral 6 mg/kg, read-out: Cmax, plasma concentration): 45.9 ng/mL
Tmax ([1]; plasma, single oral 6 mg/kg): 2 h
AUC(0-t) ([1]; plasma, single oral 10 mg/kg): 493 ng·h/mL
Cmax ([1]; plasma, single oral 10 mg/kg, read-out: Cmax, plasma concentration): 83 ng/mL
Tmax ([1]; plasma, single oral 10 mg/kg): 2 h
Cmax ([1]; tumor, single oral 1 mg/kg, read-out: Cmax, intratumor concentration): 90.6 ng/g
Cmax ([1]; tumor, single oral 6 mg/kg, read-out: Cmax, intratumor concentration): 772 ng/g
Cmax ([1]; tumor, single oral 10 mg/kg, read-out: Cmax, intratumor concentration): 1120 ng/g
Concentration in tumors compared with plasma ([1]; single oral 1, 6, 10 mg/kg, each time point): higher than that in plasma at each time point
AUCt, intratumor concentration ([1]; tumor, single oral 1 mg/kg): 1186 ng·h/g
Time of maximal intratumor concentration ([1]; tumor, single oral 1 mg/kg): 4 h
AUCt, intratumor concentration ([1]; tumor, single oral 6 mg/kg): 12880 ng·h/g
Time of maximal intratumor concentration ([1]; tumor, single oral 6 mg/kg): 8 h
AUCt, intratumor concentration ([1]; tumor, single oral 10 mg/kg): 17330 ng·h/g
Time of maximal intratumor concentration ([1]; tumor, single oral 10 mg/kg): 8 h
Phospho-STAT5, % of baseline levels (phospho-STAT5; 4 h and 8 h): < 20%
Phospho-STAT5, % of baseline levels (phospho-STAT5; 24 h): approximately 50%
Phosphorylation level of STAT5 in tumors (phospho-STAT5; 4 h and 8 h after single dose of 6 mg/kg or 10 mg/kg): almost completely abolished
STAT5 phosphorylation level, % of baseline (phospho-STAT5; 24 h post drug, 6 mg/kg or 10 mg/kg): ~20%
Antitumor effect (tumor volume) ([2]; 10 mg/kg once-daily oral): showed antitumor efficacy
Antitumor effect (tumor volume) ([2]; 30 mg/kg once-daily oral): induced tumor regression
Antitumor effect (tumor volume) ([3]; 10 mg/kg once-daily oral): showed antitumor efficacy
Antitumor effect (tumor volume) ([3]; 30 mg/kg once-daily oral): induced tumor regression
Survival (MV4–11-luc cells; 30 mg/kg once daily day 15–70, monitored until day 168, n = 10): all treated mice survived to day 168
MV4–11 cell infiltration (MV4–11-luc cells; 30 mg/kg once daily, whole-body imaging): no evidence of cell infiltration
